Experimental data reported in US5008283A (Pfizer Inc., priority 1990, dated 1991).

What was measured:
[1] = system: collagenase; assay: Inhibition of release of activated collagenase by IgG-stimulated neutrophils; format: cell-based, human; settings: for inhibitory effect on the release of activated collagenase by neutrophils (in words): as shown in Table I; for Inhibition of Activated Neutrophil Collagenase Release, % Inhibition: human neutrophils on IgG coated wells; for inhibitory effect on the release of activated collagenase (in words): at supraphysiological concentrations for those compounds
Excerpt: (§1) Whole human blood from normal volunteers was obtained by venipuncture into heparinized syringes. The majority of the red cells were removed by dextran sedimentation and neutrophils were separated by density centrifugation over hypaque ficoll. The neutrophil rich fraction was washed and residual red cells were removed by hypotonic lysis according to the procedure described by Blackburn, W.D. et al., Arthritis Rheum. 30:1006-1014 (1987). The neutrophils so prepared were used in the assays described below and cell viability was assured by determining their ability to exclude typan blue. In each assay the cell viability routinely exceeded 95%.
To assay for inhibition of release of activated collagenase by neutrophils,the following assay was performed. Neutrophil cell suspensions were incubated at 37° C. for 15-30 minutes in the presence of varying concentrations of tenidap or other compound under study. Tenidap was dissolved and diluted in water and added to the cells directly therefrom. Other compounds tested were initially dissolved in 0.1M NaOH and then diluted in water prior to addition to the cells. After the cells had been incubated in the presence of tenidap or other compound under study, the cell suspensions (5 × 10^6 cells/ml, 125 μl/well) were added to IgG coated and bovine serum albumin (BSA) blocked wells of microtiter plates and incubated for 45 minutes at 37° C. As controls, similar incubations were performed in the absence of IgG. Following incubation, the cell suspensions were centrifuged (750 × g) for 5 minutes at 4° C. The supernatants were removed and DFP (diisopropylfluorophosphate) was added to a final concentration of 10^-3 M to inactivate serine proteases.
Then, the collagenase activity in the DFP treated supernatants was determined by incubating, in triplicate, 200 μl aliquots of supernatant with ^3 H-labeled reconstituted type-I collagen fibrils in 7 mm flat bottom tissue culture wells (Linbro®, Cat #76-032-05, Flow Laboratories McLean, Va) as described by Johnson-Wint, B., Anal. Biochem. 104:175-181 (1980). The reconstituted fibrils in each well contained 75 μg of a mixture of ^3 H-labeled and unlabeled collagen with an activity of 7,000 cpm. To determine the total radioactivity potentially released from the fibrils in each experiment, the reconstituted fibrils were also incubated with a mixture of clostridial collagenase (250 mg/ml HBSS (Hank's balanced salt solution, GIBCO, Grand Island, N.Y.)). To maximize sensitivity and specificity of the assay, incubations were performed for eighteen hours in triplicate at 37° C. At the end of the incubation period, the supernatants were aspirated from each well and the radioactivity was determined by counting in a liquid scintillation counter. Greater than 99% of the radioactivity applied to each well was recovered from wells incubated with bacterial collagenase. Average counts per minute released by fibrils incubated with buffer (HBSS) alone were subtracted from the cpm measured in each supernatant. The resulting triplicate values for each supernatant were averaged and divided by the average cpm released by the bacterial collagenase to determine the percent fibril lysis produced by each supernatant. The total activated collagen released during the eighteen hour incubation was then calculated and divided by the incubation time to yield values for the collagenase activity (ng collagen degraded/min) in each supernatant.

[2] = system: myeloperoxidase; assay: Myeloperoxidase activity assay (ABTS/hydrogen peroxide, absorbance at 412 nm); format: biochemical; settings: myeloperoxidase extracted from human neutrophils; varying concentrations of tenidap; figures not given
Excerpt: as §1
Neutrophils (1.25 × 10^6 /ml, prepared as described above) were incubated for 60 minutes at 37° C. in either BSA or IgG coated tissue culture wells which had been blocked with BSA. Following incubation, the wells were aspirated and the cells were removed by centrifugation. […] Myeloperoxidase activity was then determined by adding 20 μl of the supernatant to 300 μl of 0.2M sodium acetate buffer, pH 4.5, containing 17 mg of 2,2'-azino-di-(3-ethylbenzthiazoline)sulfonic acid and 600 μl of 0.003% hydrogen peroxide. The activity of myeloperoxidase in the supernatant was then determined by the change in absorbance at 412 nm using a spectrophotometer as described by Shindler, J.S. et al., Eur. J. Biochem. 65:325-331 (1976).

[3] = system: collagenase; assay: Total collagenase released by IgG-stimulated neutrophils (supernatants activated with mersalyl); format: cell-based, human; settings: supernatants activated with organic mercurial, tenidap concentration not given
Excerpt: as §1
In parallel experiments, release of total collagenase into the supernatants was determined by activating latent collagenase in the supernatants with 1.0 mM mersalyl (Harris, E.D. and Vater, C.A., Methodology of collagenase research: substrate purification, enzyme activation and purification. Collagenase in Normal Pathological Connective Tissues. Edited by D. E. Woolley, J. M. Evanson, Chichester, John Wiley & Sons, 1980) prior to addition of the supernatants to the radiolabeled collagen fibrils. […]

SMILES: CC(C)Cc1ccc(C(C)C(=O)O)cc1 (stereo not drawn) [Ibuprofen]
- inhibitory effect on the release of activated collagenase by neutrophils (in words) [1]: no inhibitory effect
- Inhibition of Activated Neutrophil Collagenase Release, % Inhibition ([1]; peak concentration 175 μM): 0%

SMILES: COc1ccc2c(c1)c(CC(=O)O)c(C)n2C(=O)c1ccc(Cl)cc1 [Indomethacin]
- inhibitory effect on the release of activated collagenase (in words) [1]: some inhibitory effect
- Inhibition of Activated Neutrophil Collagenase Release, % Inhibition ([1]; peak concentration 2.5 μM): 14%

SMILES: COc1ccc2cc([C@H](C)C(=O)O)ccc2c1 [Naproxen]
- inhibitory effect on the release of activated collagenase by neutrophils (in words) [1]: no inhibitory effect
- Inhibition of Activated Neutrophil Collagenase Release, % Inhibition ([1]; peak concentration 80 μM): 0%

SMILES: CN1C(C(=O)Nc2ccccn2)=C(O)c2ccccc2S1(=O)=O [Piroxicam]
- inhibitory effect on the release of activated collagenase (in words) [1]: some inhibitory effect
- Inhibition of Activated Neutrophil Collagenase Release, % Inhibition ([1]; peak concentration 25 μM): 18%

SMILES: NC(=O)N1C(=O)C(C(=O)c2cccs2)c2cc(Cl)ccc21 (stereo not drawn) [Tenidap, 5-chloro-2,3-dihydro-2-oxo-3-(2-thienylcarbonyl)-indole-1-carboxamide]
- inhibition of the activity of myeloperoxidase (in words) [2]: inhibit the activity of myeloperoxidase
- inhibition of the total amount of collagenase released by neutrophils [3]: 22%
- inhibition of the release of activated collagenase from neutrophils (in words) ([1]; at clinically relevant concentrations): significantly inhibited
- Inhibition of Activated Neutrophil Collagenase Release, % Inhibition ([1]; peak concentration 87.5 μM): 64%
